28 compounds from patent US20230192677A1, “CYP11A1 INHIBITORS” (ORION CORPORATION, priority 2020, published 2023) can be followed below.

The target of this assay is T1, CYP11A1 (Homo sapiens, UniProt P05108).
T1 construct: human H295R adrenocortical carcinoma cell line was used as source of enzyme; endogenous in cells; host or cells: H295R human adrenocortical carcinoma cells
T1 sequence (P05108 40-521): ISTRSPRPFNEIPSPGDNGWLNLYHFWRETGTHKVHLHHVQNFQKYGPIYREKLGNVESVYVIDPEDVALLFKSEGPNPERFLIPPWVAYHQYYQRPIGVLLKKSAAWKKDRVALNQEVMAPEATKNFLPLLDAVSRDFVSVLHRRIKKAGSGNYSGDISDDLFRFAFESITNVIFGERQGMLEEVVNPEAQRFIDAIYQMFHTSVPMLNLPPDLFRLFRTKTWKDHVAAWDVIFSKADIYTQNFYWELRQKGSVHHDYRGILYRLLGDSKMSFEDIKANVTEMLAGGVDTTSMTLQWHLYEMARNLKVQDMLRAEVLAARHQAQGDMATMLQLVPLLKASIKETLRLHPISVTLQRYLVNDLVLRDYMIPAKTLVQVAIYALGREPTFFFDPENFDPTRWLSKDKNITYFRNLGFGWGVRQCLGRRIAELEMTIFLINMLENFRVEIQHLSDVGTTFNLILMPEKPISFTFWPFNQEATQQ
Briefly: CYP11A1 inhibition, isocaproic acid release assay (IARA) in H295R cells. Format: cell-based. To be noted: human H295R adrenocortical carcinoma cell line, three days, 3 nM [24,25-3H]-labelled cholesterol; read-out: IC50 on CYP11A1 inhibition (Group). On the procedure:
The ability of the test compounds to inhibit conversion of cholesterol to pregnenolone and isocaproic acid was measured by modification of isocaproic acid release assay (IARA) described by Ruangwises et al. (Biology of Reproduction 1991; 45(1):143-50) except that human H295R adrenocortical carcinoma cell line was used as source of enzyme and extraction was done with dextran-coated charcoal suspension (Isomaa, V. et al., Endocrinology 1982; 111(3):833-843). […] To determine the half maximal inhibitory concentration (IC50) of the test compounds on CYP11A1 inhibition, the cells were treated for three days with increasing concentrations of the test compounds in the presence of 3 nM [24,25-3H]-labelled cholesterol (American Radiolabelled Chemicals). The final DMSO concentration was 1%. Cell culture medium was extracted with dextran-coated charcoal suspension and the radiolabelled isocaproic acid was determined by mixing 100 μl of supernatant fraction in 200 μl of scintillation fluid (OptiPhase SuperMix, Perkin Elmer). Radioactivity was measured using a Microbeta scintillation counter (1450 MicroBeta Trilux, Wallac). All the test compounds were studied at 10 concentrations in duplicates.
With `CS(=O)(=O)N1CCC(COc2coc(CN3Cc4ccc(-c5ncco5)cc4C3)cc2=O)CC1` [Compound 3, 5-((1-(Methylsulfonyl)piperidin-4-yl)methoxy)-2-((5-(oxazol-2-yl)isoindolin-2-yl)methyl)-4H-pyran-4-one], the concentration for half-maximal inhibition (IC50) (usually the point on the concentration scale where inhibition reaches its midpoint) was less than 100 nM.

In the case of `CS(=O)(=O)N1CCC(COc2coc(CN3Cc4ccc(-c5ccno5)cc4C3)cc2=O)CC1` [Compound 4, 2-((5-(Isoxazol-5-yl)isoindolin-2-yl)methyl)-5-((1-(methylsulfonyl)piperidin-4-yl)methoxy)-4H-pyran-4-one], the concentration for half-maximal inhibition (IC50) is 101 to 200 nM.

In the case of `CS(=O)(=O)N1CCC(COc2coc(CN3Cc4ccc(-c5ccon5)cc4C3)cc2=O)CC1` [Compound 5, 2-((5-(Isoxazol-3-yl)isoindolin-2-yl)methyl)-5-((1-(methylsulfonyl)piperidin-4-yl)methoxy)-4H-pyran-4-one], the IC50 was less than 100 nM.

Take `CS(=O)(=O)N1CCC(COc2coc(CN3Cc4ccc(-c5nncs5)cc4C3)cc2=O)CC1` [Compound 6, 2-((5-(1,3,4-Thiadiazol-2-yl)isoindolin-2-yl)methyl)-5-((1-(methylsulfonyl)-piperidin-4-yl)methoxy)-4H-pyran-4-one]: the IC50 was in the range of 101 to 200 nM.

Take `CS(=O)(=O)c1cc(CN2Cc3ccc(-c4cnco4)cc3C2)ccc1OCC1CCN(S(C)(=O)=O)CC1` [Compound 13a, 5-(2-(3-(Methylsulfonyl)-4-((1-(methylsulfonyl)piperidin-4-yl)methoxy)-benzyl)isoindolin-5-yl)oxazole]: the IC50 lay within 101 to 200 nM.

On to `CS(=O)(=O)c1cc(CN2Cc3ccc(-c4ncco4)cc3C2)ccc1OCC1CCN(S(C)(=O)=O)CC1` [Compound 13b, 2-(2-(3-(Methylsulfonyl)-4-((1-(methylsulfonyl)piperidin-4-yl)methoxy)-benzyl)isoindolin-5-yl)oxazole], for which the IC50 is less than 100 nM.

Consider `CS(=O)(=O)c1cc(CN2Cc3ccc(-c4cncs4)cc3C2)ccc1OCC1CCN(S(C)(=O)=O)CC1` [Compound 14, 5-(2-(3-(Methylsulfonyl)-4-((1-(methylsulfonyl)piperidin-4-yl)methoxy)benzyl)-isoindolin-5-yl)thiazole], for which the half-inhibitory concentration (IC50) is less than 100 nM.

For the compound `CS(=O)(=O)N1CCC(COc2coc(C(N3Cc4ccccc4C3)C(F)(F)F)cc2=O)CC1` (stereo not shown) [Compound 20, 5-((1-(Methylsulfonyl)piperidin-4-yl)methoxy)-2-(2,2,2-trifluoro-1-(isoindolin-2-yl)ethyl)-4H-pyran-4-one], the half-maximal inhibitory concentration (IC50) lay within 201 to 2000 nM.

Regarding `CS(=O)(=O)c1cc(C(N2Cc3ccccc3C2)C(F)(F)F)ccc1OCC1CCN(S(C)(=O)=O)CC1` (stereo not shown) [Compound 21, 2-(2,2,2-Trifluoro-1-(3-(methylsulfonyl)-4-((1-(methylsulfonyl)piperidin-4-yl)methoxy)phenyl)ethyl)isoindoline], the 50% inhibitory concentration (IC50) fell in the range of 101 to 200 nM.

For the compound `CS(=O)(=O)N1CCC(COc2ccc(CN3Cc4ccccc4C3)cc2S(=O)(=O)C2CC2)CC1` [Compound 26, 2-(3-(Cyclopropylsulfonyl)-4-((1-(methylsulfonyl)piperidin-4-yl)methoxy)-benzyl)isoindoline], the IC50 lay within 101 to 200 nM.

As to `CCS(=O)(=O)c1cc(CN2Cc3ccc(C(F)(F)F)cc3C2)ccc1OCC1CCN(S(C)(=O)=O)CC1` [Compound 27, 2-(3-(Ethylsulfonyl)-4-((1-(methylsulfonyl)piperidin-4-yl)methoxy)benzyl)-5-(trifluoromethyl)isoindoline], the IC50 was less than 100 nM.

Turning to `CCCCS(=O)(=O)c1cc(CN2Cc3ccccc3C2)ccc1OCC1CCN(S(C)(=O)=O)CC1` [Compound 28, 2-(3-(Butylsulfonyl)-4-((1-(methylsulfonyl)piperidin-4-yl)methoxy)benzyl)iso-indoline], the IC50 is less than 100 nM.

As to `CC(C)(C)OC(=O)N1CCC2(CC1)CC(Oc1coc(CN3CCc4ccccc4C3)cc1=O)C2` [Compound 32, tert-Butyl 2-((6-((3,4-dihydroisoquinolin-2(1H)-yl)methyl)-4-oxo-4H-pyran-3-yl)oxy)-7-azaspiro[3.5]nonane-7-carboxylate], the IC50 was in the range of 101 to 200 nM.

On to `CC(C)(C)OC(=O)N1CCC2(CC1)CC(COc1coc(CN3CCc4ccccc4C3)cc1=O)C2` [Compound 35, tert-Butyl 2-(((6-((3,4-dihydroisoquinolin-2(1H)-yl)methyl)-4-oxo-4H-pyran-3-yl)oxy)methyl)-7-azaspiro[3.5]nonane-7-carboxylate], for which the IC50 was in the range of 201 to 2000 nM.

Take `O=c1cc(CN2CCc3ccccc3C2)occ1OCC1CC2(CCN(c3ncccn3)CC2)C1` [Compound 48, 2-((3,4-Dihydroisoquinolin-2(1H)-yl)methyl)-5-((7-(pyrimidin-2-yl)-7-azaspiro-[3.5]nonan-2-yl)methoxy)-4H-pyran-4-one]: the IC50 is 101 to 200 nM.

Regarding `O=c1cc(CN2CCc3ccccc3C2)occ1OCC1CC2(C1)CN(c1ncccn1)C2` [Compound 50, 2-((3,4-Dihydroisoquinolin-2(1H)-yl)methyl)-5-((2-(pyrimidin-2-yl)-2-azaspiro-[3.3]heptan-6-yl)methoxy)-4H-pyran-4-one], the IC50 was in the range of 201 to 2000 nM.

In the case of `N#Cc1ccc(N2CC3(CC(COc4coc(CN5CCc6ccccc6C5)cc4=O)C3)C2)nc1` [Compound 51, 6-(6-(((6-((3,4-Dihydroisoquinolin-2(1H)-yl)methyl)-4-oxo-4H-pyran-3-yl)oxy)-methyl)-2-azaspiro[3.3]heptan-2-yl)nicotinonitrile], the IC50 lay in the range of 201 to 2000 nM.

Take `O=c1cc(CN2CCc3ccccc3C2)occ1OC1CC2(CCN(S(=O)(=O)c3cccnc3)CC2)C1` [Compound 54, 2-((3,4-Dihydroisoquinolin-2(1H)-yl)methyl)-5-((7-(pyridin-3-ylsulfonyl)-7-azaspiro[3.5]nonan-2-yl)oxy)-4H-pyran-4-one]: the IC50 was in the range of 201 to 2000 nM.

For `O=c1cc(CN2CCc3ccccc3C2)occ1OCC1CC2(C1)CN(S(=O)(=O)c1ccc(F)cc1)C2` [Compound 58, 2-((3,4-Dihydroisoquinolin-2(1H)-yl)methyl)-5-((2-((4-fluorophenyl)sulfonyl)-2-azaspiro[3.3]heptan-6-yl)methoxy)-4H-pyran-4-one], the IC50 is 101 to 200 nM.

Take `CS(=O)(=O)N1CC2(CC(COc3coc(CN4CCc5ccccc5C4)cc3=O)C2)C1` [Compound 62, 2-((3,4-Dihydroisoquinolin-2(1H)-yl)methyl)-5-((2-(methylsulfonyl)-2-azaspiro[3.3]heptan-6-yl)methoxy)-4H-pyran-4-one]: the IC50 was in the range of 201 to 2000 nM.

For the compound `CS(=O)(=O)c1cc(CN2Cc3ccccc3C2)ccc1OCC1CCN(S(C)(=O)=O)CC1` [Compound 65, 2-(3-(Methylsulfonyl)-4-((1-(methylsulfonyl)piperidin-4-yl)methoxy)benzyl)-isoindoline], the IC50 is less than 100 nM.

In the case of `CC(=O)[C@H]1CC[C@H](COc2ccc(CN3Cc4ccccc4C3)cc2S(C)(=O)=O)CC1` [Compound 67, 1-((1r,4r)-4-((4-(Isoindolin-2-ylmethyl)-2-(methylsulfonyl)phenoxy)methyl)-cyclohexyl)ethan-1-one], the IC50 was less than 100 nM.

On to `CN(C)C(=O)c1ccc(COc2ccc(CN3Cc4ccccc4C3)cc2S(C)(=O)=O)cc1` [Compound 68, 4-((4-(Isoindolin-2-ylmethyl)-2-(methylsulfonyl)phenoxy)methyl)-N,N-dimethylbenzamide], for which the IC50 was less than 100 nM.

For `COCCN(C)C(=O)c1ccc(COc2ccc(CN3Cc4ccccc4C3)cc2S(C)(=O)=O)cc1` [Compound 69, 4-((4-(Isoindolin-2-ylmethyl)-2-(methylsulfonyl)phenoxy)methyl)-N-(2-methoxyethyl)-N-methylbenzamide], the IC50 was less than 100 nM.

`CCC(=O)N1CCC(COc2ccc(CN3Cc4ccccc4C3)cc2S(C)(=O)=O)CC1` [Compound 70]: the IC50 lay in the range of 101 to 200 nM.

For the compound `CCS(=N)(=O)c1ccc(COc2ccc(CN3Cc4ccccc4C3)cc2S(C)(=O)=O)cc1` (stereo not shown) [Compound 71, Ethyl(imino)(4-((4-(isoindolin-2-ylmethyl)-2-(methylsulfonyl)phenoxy)methyl)-phenyl)-λ^6-sulfanone], the IC50 was less than 100 nM.

`CS(=N)(=O)c1ccc(COc2ccc(CN3Cc4ccccc4C3)cc2S(C)(=O)=O)cc1` (stereo not shown) [Compound 72, Imino(4-((4-(isoindolin-2-ylmethyl)-2-(methylsulfonyl)phenoxy)methyl)phenyl)(methyl)-λ^6-sulfanone]: the 50% inhibitory concentration (IC50) is less than 100 nM.

For the compound `CC(C)C(=O)N1CCC(COc2ccc(CN3Cc4ccccc4C3)cc2S(C)(=O)=O)CC1` [Compound 73, 1-(4-((4-(Isoindolin-2-ylmethyl)-2-(methylsulfonyl)phenoxy)methyl)piperidin-1-yl)-2-methylpropan-1-one], the 50% inhibitory concentration (IC50) was less than 100 nM.
